Measured values: US7008905B2, “Method of combating undesired plant growth on cereals” (BASF Aktiengesellschaft, priority 2000, dated 2006)

What was measured:
Assay type in all cases: in vivo
[1] = test system: Alopecurus myosuroides; test: Pre-emergence test, weed control; details: 3 weeks after treatment, rating 0-100 (100=death), Table 3
Protocol: (§1) The pre-emergence tests involve spraying a liquid formulation of the compound onto the soil in which the seeds of the plant species mentioned above has recently been sown.
(§2) The soil used in the tests is a prepared horticultural loam. The formulations used in the tests are prepared from solutions of the test compounds in acetone containing 0.4% by weight of an alkylphenol/ethylene oxide condensate available under the trade mark TRITON X-155.
(§3) In these tests untreated sown soil is used as control. The herbicidal effects of the test compounds are assessed visually three weeks after spraying the soil and are recorded an a 0 to 100 scale. A rating 0 indicates growth as untreated control, a rating 100 indicates death. An increase of 10 unit an the linear scale approximates to a 10% increase in the level of effect. The results of the assessment are set out in Tables 1 to 4.

[2] = test system: Apera spica-venti; test: Pre-emergence test, weed control; details: 3 weeks after treatment, rating 0-100 (100=death), Table 3
Protocol: as §1, §2, §3

[3] = test system: Galium aparine; test: Pre-emergence test, weed control; details: 3 weeks after treatment, rating 0-100 (100=death), Table 3
Protocol: as §1, §2, §3

[4] = test system: Lamium purpureum; test: Pre-emergence test, weed control; details: 3 weeks after treatment, rating 0-100 (100=death), Table 3
Protocol: as §1, §2, §3

[5] = test system: Lolium perenne; test: Pre-emergence test, weed control; details: 3 weeks after treatment, rating 0-100 (100=death), Table 3
Protocol: as §1, §2, §3

[6] = test system: Matricaria inodora; test: Pre-emergence test, weed control; details: 3 weeks after treatment, rating 0-100 (100=death), Table 3
Protocol: as §1, §2, §3

[7] = test system: Poa annua; test: Pre-emergence test, weed control; details: 3 weeks after treatment, rating 0-100 (100=death), Table 3
Protocol: as §1, §2, §3

[8] = test system: Setaria viridis; test: Pre-emergence test, weed control; details: 3 weeks after treatment, rating 0-100 (100=death), Table 3
Protocol: as §1, §2, §3

[9] = test system: Stellaria media; test: Pre-emergence test, weed control; details: 3 weeks after treatment, rating 0-100 (100=death), Table 3
Protocol: as §1, §2, §3

[10] = test system: Veronica persica; test: Pre-emergence test, weed control; details: 3 weeks after treatment, rating 0-100 (100=death), Table 3
Protocol: as §1, §2, §3

[11] = test system: PAPRH; test: Pre-emergence test, weed control; details: 3 weeks after treatment, rating 0-100 (100=death), Table 3
Protocol: as §1, §2
as §3, with “These acetone solutions are diluted with water and the resulting formulations applied at dosage levels corresponding to 15 g, 30 g, 60 g, 120 g or 240 g of active material per hectare in a volume equivalent to 900 liters per hectare. In” for “In”

[12] = test system: VIOAR; test: Pre-emergence test, weed control; details: 3 weeks after treatment, rating 0-100 (100=death), Table 3
Protocol: as §1, §2
as §3, with “These acetone solutions are diluted with water and the resulting formulations applied at dosage levels corresponding to 15 g, 30 g, 60 g, 120 g or 240 g of active material per hectare in a volume equivalent to 900 liters per hectare. In” for “In”

[13] = test system: Triticum aestivum variety “Kanzler”; test: Pre-emergence test, selectivity; details: 3 weeks after treatment, rating 0-100 (100=death), Table 4
Protocol: as §1, §2
as §3, with “These acetone solutions are diluted with water and the resulting formulations applied at dosage levels corresponding to 15 g, 30 g, 60 g, 120 g or 240 g of active material per hectare in a volume equivalent to 900 liters per hectare. In” for “In”

[14] = test system: Triticum aestivum variety “Monopol”; test: Pre-emergence test, selectivity; details: 3 weeks after treatment, rating 0-100 (100=death), Table 4
Protocol: as §1, §2
as §3, with “These acetone solutions are diluted with water and the resulting formulations applied at dosage levels corresponding to 15 g, 30 g, 60 g, 120 g or 240 g of active material per hectare in a volume equivalent to 900 liters per hectare. In” for “In”

[15] = test system: wheat; test: Pre-emergence test, tolerance in wheat; details: pre-emergence
Protocol: as §1, §2
as §3, with “These acetone solutions are diluted with water and the resulting formulations applied at dosage levels corresponding to 15 g, 30 g, 60 g, 120 g or 240 g of active material per hectare in a volume equivalent to 900 liters per hectare. In” for “In”

[16] = test system: grasses and broadleaf weeds; test: Pre-emergence test, overall weed control
Protocol: as §1, §2
as §3, with “These acetone solutions are diluted with water and the resulting formulations applied at dosage levels corresponding to 15 g, 30 g, 60 g, 120 g or 240 g of active material per hectare in a volume equivalent to 900 liters per hectare. In” for “In”

FC(F)(F)c1ccc(-c2nccc(Oc3ccnc(Cl)c3)n2)cc1 [CTP, 4-(2-chloropyrid-4-yloxy)-2-(4-trifluoromethyl-phenyl)pyrimidine]
35: ALOMY weed control rating ([1]; 0.060 kg/ha)
120 g/ha: dose at which complete control of all the grasses and broadleaf weeds was achieved [16]
98: LOLPE weed control rating ([5]; 0.120 kg/ha) | MATIN weed control rating ([6]; 0.030 kg/ha) | SETVI weed control rating ([8]; 0.030 kg/ha)
100: ALOMY weed control rating ([1]; 0.240 kg/ha) | APESV weed control rating ([2]; 0.030 kg/ha) | APESV weed control rating ([2]; 0.060 kg/ha) | APESV weed control rating ([2]; 0.120 kg/ha) | APESV weed control rating ([2]; 0.240 kg/ha) | LAMPU weed control rating ([4]; 0.060 kg/ha) | LAMPU weed control rating ([4]; 0.120 kg/ha) | LAMPU weed control rating ([4]; 0.240 kg/ha) | LOLPE weed control rating ([5]; 0.240 kg/ha) | MATIN weed control rating ([6]; 0.240 kg/ha) | POAAN weed control rating ([7]; 0.030 kg/ha) | POAAN weed control rating ([7]; 0.060 kg/ha) | POAAN weed control rating ([7]; 0.120 kg/ha) | POAAN weed control rating ([7]; 0.240 kg/ha) | SETVI weed control rating ([8]; 0.060 kg/ha) | SETVI weed control rating ([8]; 0.120 kg/ha) | SETVI weed control rating ([8]; 0.240 kg/ha) | STEME weed control rating ([9]; 0.060 kg/ha) | STEME weed control rating ([9]; 0.120 kg/ha) | STEME weed control rating ([9]; 0.240 kg/ha) | VERPE weed control rating ([10]; 0.030 kg/ha) | VERPE weed control rating ([10]; 0.060 kg/ha) | VERPE weed control rating ([10]; 0.120 kg/ha) | VERPE weed control rating ([10]; 0.240 kg/ha) | PAPRH weed control rating ([11]; 0.030 kg/ha) | PAPRH weed control rating ([11]; 0.060 kg/ha) | PAPRH weed control rating ([11]; 0.120 kg/ha) | PAPRH weed control rating ([11]; 0.240 kg/ha) | VIOAR weed control rating ([12]; 0.060 kg/ha) | VIOAR weed control rating ([12]; 0.120 kg/ha) | VIOAR weed control rating ([12]; 0.240 kg/ha)
80: STEME weed control rating ([9]; 0.030 kg/ha)
95: GALAP weed control rating ([3]; 0.240 kg/ha) | LOLPE weed control rating ([5]; 0.060 kg/ha)
90: LAMPU weed control rating ([4]; 0.030 kg/ha)
99: ALOMY weed control rating ([1]; 0.120 kg/ha) | MATIN weed control rating ([6]; 0.060 kg/ha) | MATIN weed control rating ([6]; 0.120 kg/ha) | VIOAR weed control rating ([12]; 0.030 kg/ha)
1: TRZAWK rating (Selectivity) ([13]; 0.120 kg/ha) | TRZAWM rating (Selectivity) ([14]; 0.060 kg/ha)
15: ALOMY weed control rating ([1]; 0.030 kg/ha)
5: TRZAWK rating (Selectivity) ([13]; 0.240 kg/ha) | TRZAWM rating (Selectivity) ([14]; 0.240 kg/ha)
240 g/ha: maximum tolerated dose in wheat / dose at which sufficiently selective in wheat [15]
93: GALAP weed control rating ([3]; 0.120 kg/ha) | LOLPE weed control rating ([5]; 0.030 kg/ha)
65: GALAP weed control rating ([3]; 0.060 kg/ha)
10: GALAP weed control rating ([3]; 0.030 kg/ha)
2: TRZAWM rating (Selectivity) ([14]; 0.120 kg/ha)
